Patent US9738664B2, “Boronic acid inhibitors of HIV protease” (WISCONSIN ALUMNI RESEARCH FOUNDATION, priority 2014, dated 2017)

How the values were obtained:
[1] = test system: MT-4 cells; assay: Toxicity for MT-4 cells (growth inhibition); format: cell-based, human; details: concentrations up to 1 mM
[2] = test system: HIV; assay: Inhibition of HIV cytopathic toxicity in MT-4 cells (MTS cell viability); format: cell-based; details: virus from pNL4-3 at 100×TCID50, 7 days, MTS assay (FIG. 3)
Description: The ability of B-darunavir to inhibit the cytopathic toxicity of HIV was determined by standard methods (11). Briefly, both human lymphocyte cell line MT-4 and plasmid pNL4-3, which directs the production of infectious virions (12), were obtained from the NIH AIDS Reagent Program. […] Then, MT-4 cells were transfected with plasmid pNL4-3. Maximal virus production was detected on Day 6 post-transfection. Viral inhibition assays were conducted with 25,000 MT-4 cells in 200 μL of RPMI medium containing fetal bovine serum (10% v/v). Infections were conducted with virus at 100×TCID50 by resuspending pelleted cells in 500 μL of virus-containing medium and incubating for 4 h prior to plating with B-darunavir. After 7 days, the loss of HIV cytopathic toxicity was assessed by measuring cell viability using the MTS assay from Promega (Madison, Wis.).

[3] = target: T1, HIV-1 protease (Human immunodeficiency virus type 1 group M subtype B, UniProt P03367, C567A/C595A/L533I/L563I/Q507K); assay: biochemical
T1 construct: Double-stranded, linear DNA encoding HIV-1 protease; 8xHis (self-cleavable) (N, cleaved yes); made in house
Description: This peptide was used as a fluorogenic substrate for HIV protease by monitoring the fluorescence of the Edans group (5-((2-aminoethyl)amino)naphthalene-1-sulfonic acid) upon substrate hydrolysis and separation from the quenching Dabcyl group (4-((4-(dimethylamino)phenyl)azo)benzoic acid, succinimidyl ester. [6] Substrate was dissolved at 1 mM by sonication in DMF containing TFA (0.1% v/v). Stock solutions of each putative HIV protease inhibitor were generated by dissolving the inhibitor in DMF to a concentration of 50 mM and diluting in DMF to ˜100×stocks of the final assay concentrations. Assays were performed in 50 mM sodium acetate buffer, pH 5.0, containing NaCl (100 mM). Wells in a microtiter plate were charged initially with inhibitor (various concentrations) and substrate (final concentration: 10 μM). HIV protease was then added (final concentration: 50-150 μM). Reaction velocities in the assay solutions (total volume: 200 μL) were measured in quadruplicate at 7-9 inhibitor concentrations including no-inhibitor and no-enzyme controls.

Row | SMILES | inhibition of the growth of MT-4 cells (toxicity) [1] | concentration that inhibits the toxicity of HIV for human lymphocytes [2] | Ki [3]
1 | CC(C)CN(C[C@@H](O)[C@H](Cc1ccccc1)NC(=O)O[C@H]1CO[C@H]2OCC[C@H]21)S(=O)(=O)c1ccc(B(O)O)cc1 [B-Darunavir (9)] | not to cause a significant inhibition of the growth of MT-4 cells | ≥ 100 nM | 
2 | CC(C)CN(C[C@@H](O)[C@H](Cc1ccccc1)NC(=O)O[C@H]1CCOC1)S(=O)(=O)c1ccc(B(O)O)cc1 [B-Amprenavir (6)] |  |  | 2.1 ± 0.3 pM
